The test has as its system MV-4-11 cells. As to the kind of experiment: Gene expression microarray analysis (Affymetrix PrimeView) and GSEA. Also on record: RFU PODN (11730768_x_at) / Fold change /veh PODN (11730768_x_at) / RFU LINC00158 (11744669_a_at) / Fold change /veh LINC00158 (11744669_a_at) / RFU DUSP10 (11751237_a_at) / Fold change /veh DUSP10 (11751237_a_at) / RFU ID3 (11757404_x_at) / Fold change /veh ID3 (11757404_x_at) / RFU PLEKHG5 (11737974_s_at) / Fold change /veh PLEKHG5 (11737974_s_at) / RFU LRRC4B (11730491_at) / Fold change /veh LRRC4B (11730491_at) / RFU GIMAP4 (11747438_a_at) / Fold change /veh GIMAP4 (11747438_a_at) / RFU KRT8 (11758183_x_at) / Fold change /veh KRT8 (11758183_x_at) / RFU CNN1 (11734310_a_at) / Fold change /veh CNN1 (11734310_a_at) / RFU VPS37D (11726825_at) / Fold change /veh VPS37D (11726825_at) / RFU C10orf10 (11716522_x_at) / Fold change /veh C10orf10 (11716522_x_at) / RFU KIR2DL2 /// KIR2DL4 /// KIR2DL5A /// KIR2DL5B /// KIR2DS1 /// KIR2DS2 /// KIR2DS3 /// KIR2DS4 /// KIR3DL3 /// KIR3DL3 /// KIR3DS1 (11738374_at) / Fold change /veh KIR2DL2 /// KIR2DL4 /// KIR2DL5A /// KIR2DL5B /// KIR2DS1 /// KIR2DS2 /// KIR2DS3 /// KIR2DS4 /// KIR3DL3 /// KIR3DL3 /// KIR3DS1 (11738374_at) / RFU C1QL1 (11718748_at) / Fold change /veh C1QL1 (11718748_at) / RFU TMPRSS4 (11747572_a_at) / Fold change /veh TMPRSS4 (11747572_a_at) / RFU HAMP (11756126_x_at) / Fold change /veh HAMP (11756126_x_at) / RFU RNFT2 (11725882_a_at) / Fold change /veh RNFT2 (11725882_a_at) / RFU NR4A2 (11747474_a_at) / Fold change /veh NR4A2 (11747474_a_at) / RFU ABCC12 (11746883_a_at) / Fold change /veh ABCC12 (11746883_a_at) / RFU TMEM136 (11760407_x_at) / Fold change /veh TMEM136 (11760407_x_at) / RFU CLDN22 /// WWC2 (11732394_at) / Fold change /veh CLDN22 /// WWC2 (11732394_at) / RFU HLA-DPB1 (11760878_x_at) / Fold change /veh HLA-DPB1 (11760878_x_at) / RFU SPINT1 (11716480_a_at) / Fold change /veh SPINT1 (11716480_a_at) / RFU GAP43 (11754022_s_at) / Fold change /veh GAP43 (11754022_s_at) / RFU A4GNT (11735810_at) / Fold change /veh A4GNT (11735810_at) / RFU PRB3 (11715151_x_at) / Fold change /veh PRB3 (11715151_x_at) / RFU TUBB4B (11761932_at) / Fold change /veh TUBB4B (11761932_at) / RFU CAPN14 (11732068_a_at) / Fold change /veh CAPN14 (11732068_a_at) / RFU TMCC2 (11721928_a_at) / Fold change /veh TMCC2 (11721928_a_at) / RFU IRGQ (11745062_a_at) / Fold change /veh IRGQ (11745062_a_at) / RFU FAM174B (11720279_a_at) / Fold change /veh FAM174B (11720279_a_at) / RFU TMPRSS4 (11748680_a_at) / Fold change /veh TMPRSS4 (11748680_a_at) / RFU FAM212B (11763350_a_at) / Fold change /veh FAM212B (11763350_a_at) / RFU PLEKHG5 (11743358_a_at) / Fold change /veh PLEKHG5 (11743358_a_at) / RFU ZSCAN30 (11745921_a_at) / Fold change /veh ZSCAN30 (11745921_a_at) / RFU CMKLR1 (11741424_a_at) / Fold change /veh CMKLR1 (11741424_a_at) / RFU LOC101060620 /// MAPK8IP1 (11723275_at) / Fold change /veh LOC101060620 /// MAPK8IP1 (11723275_at) / RFU SPTSSB (11747773_x_at) / Fold change /veh SPTSSB (11747773_x_at) / RFU PRSS12 (11739890_at) / Fold change /veh PRSS12 (11739890_at) / RFU BIN1 (11741810_x_at) / Fold change /veh BIN1 (11741810_x_at) / RFU WNT11 (11732464_a_at) / Fold change /veh WNT11 (11732464_a_at) / RFU C10orf10 (11716521_a_at) / Fold change /veh C10orf10 (11716521_a_at) / RFU C5orf56 (11738089_at) / Fold change /veh C5orf56 (11738089_at) / RFU CYB561 (11721691_x_at) / Fold change /veh CYB561 (11721691_x_at) / RFU ANKRD19P (11752326_a_at) / Fold change /veh ANKRD19P (11752326_a_at) / RFU OR2T12 /// OR2T33 /// OR2T8 (11738714_s_at) / Fold change /veh OR2T12 /// OR2T33 /// OR2T8 (11738714_s_at) / RFU VCAN (11748164_a_at) / Fold change /veh VCAN (11748164_a_at) / RFU JSRP1 (11732532_at) / Fold change /veh JSRP1 (11732532_at) / RFU KRTAP10-11 (11738290_x_at) / Fold change /veh KRTAP10-11 (11738290_x_at) / RFU MYO3A (11730013_a_at) / Fold change /veh MYO3A (11730013_a_at) / RFU EBF3 (11725865_a_at) / Fold change /veh EBF3 (11725865_a_at) / RFU CAMK2N1 (11719241_x_at) / Fold change /veh CAMK2N1 (11719241_x_at) / RFU C5orf56 (11738088_a_at) / Fold change /veh C5orf56 (11738088_a_at) / RFU OLFML3 (11715873_a_at) / Fold change /veh OLFML3 (11715873_a_at) / RFU LOC100653217 /// NTM (11731650_a_at) / Fold change /veh LOC100653217 /// NTM (11731650_a_at) / RFU MAPK11 (11762145_a_at) / Fold change /veh MAPK11 (11762145_a_at) / RFU FIZ1 (11724087_x_at) / Fold change /veh FIZ1 (11724087_x_at) / RFU OASL (11726364_x_at) / Fold change /veh OASL (11726364_x_at) / RFU SOX15 (11748057_x_at) / Fold change /veh SOX15 (11748057_x_at) / RFU CD79A (11719716_a_at) / Fold change /veh CD79A (11719716_a_at) / RFU HIST1H1D (11736915_at) / Fold change /veh HIST1H1D (11736915_at) / RFU CASKIN2 (11723855_a_at) / Fold change /veh CASKIN2 (11723855_a_at) / RFU LOC730098 (11760151_x_at) / Fold change /veh LOC730098 (11760151_x_at) / RFU OR4N2 (11742367_at) / Fold change /veh OR4N2 (11742367_at) / RFU PRRT2 (11749266_a_at) / Fold change /veh PRRT2 (11749266_a_at) / RFU SNX32 (11753110_a_at) / Fold change /veh SNX32 (11753110_a_at) / RFU CDHR5 (11726645_a_at) / Fold change /veh CDHR5 (11726645_a_at) / RFU RCAN1 (11760418_a_at) / Fold change /veh RCAN1 (11760418_a_at) / RFU FAM167A (11723789_a_at) / Fold change /veh FAM167A (11723789_a_at) / RFU FAM26E (11764081_at) / Fold change /veh FAM26E (11764081_at) / RFU ISYNA1 (11749810_s_at) / Fold change /veh ISYNA1 (11749810_s_at) / RFU ACY1 (11761880_at) / Fold change /veh ACY1 (11761880_at) / RFU 11764098_at / Fold change /veh 11764098_at / RFU SAMD14 (11745864_x_at) / Fold change /veh SAMD14 (11745864_x_at) / RFU NPB (11741838_a_at) / Fold change /veh NPB (11741838_a_at) / RFU TMPRSS6 (11731388_a_at) / Fold change /veh TMPRSS6 (11731388_a_at) / RFU KRTAP10-2 (11738614_at) / Fold change /veh KRTAP10-2 (11738614_at) / RFU ARHGAP8 /// PRR5-ARHGAP8 (11727945_x_at) / Fold change /veh ARHGAP8 /// PRR5-ARHGAP8 (11727945_x_at) / RFU KRTAP5-7 /// NADSYN1 (11734609_at) / Fold change /veh KRTAP5-7 /// NADSYN1 (11734609_at) / RFU RASL12 (11751679_a_at) / Fold change /veh RASL12 (11751679_a_at) / RFU CDKN2B (11736163_a_at) / Fold change /veh CDKN2B (11736163_a_at) / RFU PRF1 (11729649_at) / Fold change /veh PRF1 (11729649_at) / RFU, ZNF638 /// ZNF638-IT1 / Fold change vs veh, ZNF638 /// ZNF638-IT1 / RFU, PANK3 / Fold change vs veh, PANK3 / RFU, SH3YL1 / Fold change vs veh, SH3YL1 / RFU, ZEB2 / Fold change vs veh, ZEB2 / RFU, NRIP1 / Fold change vs veh, NRIP1 / RFU, PTTG1IP / Fold change vs veh, PTTG1IP / RFU, CAPN2 / Fold change vs veh, CAPN2 / RFU, MED14 / Fold change vs veh, MED14 / RFU, SNORA58 / Fold change vs veh, SNORA58 / RFU, C1orf63 / Fold change vs veh, C1orf63 / RFU, LRRFIP1 / Fold change vs veh, LRRFIP1 / RFU, NDUFAF7 / Fold change vs veh, NDUFAF7 / RFU, SLC12A2 / Fold change vs veh, SLC12A2 / RFU, IBTK / Fold change vs veh, IBTK / RFU, ESF1 / Fold change vs veh, ESF1 / Fold change vs veh, TMEM50B / RFU, TAOK1 / Fold change vs veh, TAOK1 / RFU, ACBD3 / Fold change vs veh, ACBD3 / RFU, TMA16 / Fold change vs veh, TMA16 / RFU, RWDD3 / Fold change vs veh, RWDD3 / RFU, BCAT1 / Fold change vs veh, BCAT1 / RFU, EDEM3 / Fold change vs veh, EDEM3 / RFU, TMEM33 / Fold change vs veh, TMEM33 / RFU, WDR75 / Fold change vs veh, WDR75 / RFU, AHCTF1 / Fold change vs veh, AHCTF1 / RFU, TFRC / Fold change vs veh, TFRC / RFU, ZDHHC17 / Fold change vs veh, ZDHHC17 / RFU, NOM1 / Fold change vs veh, NOM1 / RFU, ARL8B / Fold change vs veh, ARL8B / RFU, ZBTB11 / Fold change vs veh, ZBTB11 / RFU, TAMM41 / Fold change vs veh, TAMM41 / RFU, KIAA1704 /// LOC100996395 / Fold change vs veh, KIAA1704 /// LOC100996395 / RFU, ING1 / Fold change vs veh, ING1 / RFU, TRMT61B / Fold change vs veh, TRMT61B / RFU, FUBP3 / Fold change vs veh, FUBP3 / RFU, TP53 / Fold change vs veh, TP53 / RFU, TNKS2 / Fold change vs veh, TNKS2 / RFU, ZFP14 / Fold change vs veh, ZFP14 / RFU, ACTR2 / Fold change vs veh, ACTR2 / RFU, PPP3R1 / Fold change vs veh, PPP3R1 / RFU, PIK3R1 / Fold change vs veh, PIK3R1 / RFU, HNRNPA1 / Fold change vs veh, HNRNPA1 / RFU, RNF170 / Fold change vs veh, RNF170 / RFU, ZNF28 / Fold change vs veh, ZNF28 / RFU, RNGTT / Fold change vs veh, RNGTT / RFU, OGT / Fold change vs veh, OGT / RFU, BRD1 / Fold change vs veh, BRD1 / RFU, MARS / Fold change vs veh, MARS / RFU, ZNF655 / Fold change vs veh, ZNF655 / RFU, FAHD1 / Fold change vs veh, FAHD1 / RFU, BDP1 / Fold change vs veh, BDP1 / RFU, LRRCC1 / Fold change vs veh, LRRCC1 / RFU, ARID1A / Fold change vs veh, ARID1A / RFU, ZNF146 / Fold change vs veh, ZNF146 / RFU, ZNF330 / Fold change vs veh, ZNF330 / RFU, GPN3 / Fold change vs veh, GPN3 / RFU, C9orf123 / Fold change vs veh, C9orf123 / RFU, N4BP2L2 / Fold change vs veh, N4BP2L2 / RFU, ARFIP1 / Fold change vs veh, ARFIP1 / RFU, FAM179B / Fold change vs veh, FAM179B / RFU, BCL10 / Fold change vs veh, BCL10 / RFU, UHRF1BP1L / Fold change vs veh, UHRF1BP1L / RFU, BET1 / Fold change vs veh, BET1 / RFU, CNOT2 / Fold change vs veh, CNOT2 / RFU, ZNF268 / Fold change vs veh, ZNF268 / Fold change vs veh, ZNF507 / RFU, DGCR2 / Fold change vs veh, DGCR2 / RFU, WDSUB1 / Fold change vs veh, WDSUB1 / Fold change vs veh, HSP90B1 /// MIR3652 / RFU, ADSS / Fold change vs veh, ADSS / RFU, GK / Fold change vs veh, GK / RFU, ZNF148 / Fold change vs veh, ZNF148 / RFU, TAF9 / Fold change vs veh, TAF9 / RFU, SLC1A5 / Fold change vs veh, SLC1A5 / RFU, SLMO2 / Fold change vs veh, SLMO2 / RFU, ABCC4 / Fold change vs veh, ABCC4 / RFU, LOC101060439 /// RAP1B / Fold change vs veh, LOC101060439 /// RAP1B / RFU, RFX7 / Fold change vs veh, RFX7 / RFU, GTPBP10 / Fold change vs veh, GTPBP10 / RFU, CNEP1R1 / Fold change vs veh, CNEP1R1 / RFU, BIVM-ERCC5 /// ERCC5 / Fold change vs veh, BIVM-ERCC5 /// ERCC5 / RFU, ILF3 / Fold change vs veh, ILF3 / RFU 11762660_at / Fold change /veh 11762660_at / RFU VCAN (11757783_s_at) / Fold change /veh VCAN (11757783_s_at) / RFU DDX43 (11728927_at) / Fold change /veh DDX43 (11728927_at) / RFU KRT8 (11758188_x_at) / Fold change /veh KRT8 (11758188_x_at) / RFU NKD1 (11759106_at) / Fold change /veh NKD1 (11759106_at) / RFU SRD5A1 (11742802_a_at) / Fold change /veh SRD5A1 (11742802_a_at) / RFU TPSAB1 /// TPSB2 (11721975_s_at) / Fold change /veh TPSAB1 /// TPSB2 (11721975_s_at) / RFU GSTM3 (11746129_a_at) / Fold change /veh GSTM3 (11746129_a_at) / RFU IL23R (11737362_x_at) / Fold change /veh IL23R (11737362_x_at) / RFU TMEM51 (11727254_a_at) / Fold change /veh TMEM51 (11727254_a_at) / RFU PIWIL2 (11732686_x_at) / Fold change /veh PIWIL2 (11732686_x_at) / RFU ORM1 (11744905_x_at) / Fold change /veh ORM1 (11744905_x_at) / RFU CCDC152 (11743942_at) / Fold change /veh CCDC152 (11743942_at) / RFU ECM1 (11717891_a_at) / Fold change /veh ECM1 (11717891_a_at) / RFU IL23R (11748794_a_at) / Fold change /veh IL23R (11748794_a_at) / RFU TNFAIP8L3 (11732012_x_at) / Fold change /veh TNFAIP8L3 (11732012_x_at) / RFU MBOAT4 (11741988_at) / Fold change /veh MBOAT4 (11741988_at) / RFU 11764193_at / Fold change /veh 11764193_at / RFU TMEM53 (11763286_at) / Fold change /veh TMEM53 (11763286_at) / RFU MAGEB2 (11727129_at) / Fold change /veh MAGEB2 (11727129_at) / RFU TMEM200A (11744735_a_at) / Fold change /veh TMEM200A (11744735_a_at) / RFU CCDC152 (11751479_a_at) / Fold change /veh CCDC152 (11751479_a_at) / RFU FAM211A (11726209_a_at) / Fold change /veh FAM211A (11726209_a_at) / RFU RGS16 (11746705_a_at) / Fold change /veh RGS16 (11746705_a_at) / RFU VCAN (11755009_s_at) / Fold change /veh VCAN (11755009_s_at) / RFU RHOB (11743442_s_at) / Fold change /veh RHOB (11743442_s_at) / RFU RGS16 (11720943_a_at) / Fold change /veh RGS16 (11720943_a_at) / RFU RGS16 (11720944_at) / Fold change /veh RGS16 (11720944_at) / RFU, VPS4B / Fold change vs veh, VPS4B / RFU, CREB1 / Fold change vs veh, CREB1 / RFU, DNAJC13 / Fold change vs veh, DNAJC13 / RFU, GNAQ / Fold change vs veh, GNAQ / RFU, CDK5R1 / Fold change vs veh, CDK5R1 / RFU, ZRANB3 / Fold change vs veh, ZRANB3 / RFU, CUL4A / Fold change vs veh, CUL4A / RFU, CCNY / Fold change vs veh, CCNY / RFU, UFL1 / Fold change vs veh, UFL1 / RFU, COG3 / Fold change vs veh, COG3 / RFU, DIAPH2 / Fold change vs veh, DIAPH2 / RFU, SKA2 / Fold change vs veh, SKA2 / RFU, AFF3 / Fold change vs veh, AFF3 / RFU, LMF1 / Fold change vs veh, LMF1 / RFU, IPO11 / Fold change vs veh, IPO11 / RFU, DFFB / Fold change vs veh, DFFB / RFU, FOXP1 / Fold change vs veh, FOXP1 / RFU, CARD8 / Fold change vs veh, CARD8 / RFU, STRN3 / Fold change vs veh, STRN3 / RFU, ADK / Fold change vs veh, ADK / RFU, RASSF2 / Fold change vs veh, RASSF2 / RFU, WIPF1 / Fold change vs veh, WIPF1 / RFU, LARP1B / Fold change vs veh, LARP1B / RFU, RASA1 / Fold change vs veh, RASA1 / RFU, RB1 / Fold change vs veh, RB1 / RFU, PPFIA1 / Fold change vs veh, PPFIA1 / RFU, MAT2A / Fold change vs veh, MAT2A / RFU, CCT5 / Fold change vs veh, CCT5 / RFU, WDR92 / Fold change vs veh, WDR92 / RFU, CUX1 / Fold change vs veh, CUX1 / RFU, TTC7A / Fold change vs veh, TTC7A / RFU, TMEM135 / Fold change vs veh, TMEM135 / RFU, DEPTOR / Fold change vs veh, DEPTOR / RFU, CPM / Fold change vs veh, CPM / RFU, DNAJB6 / Fold change vs veh, DNAJB6 / RFU, CACNA2D3 / Fold change vs veh, CACNA2D3 / RFU, DTX4 / Fold change vs veh, DTX4 / RFU, TFCP2 / Fold change vs veh, TFCP2 / RFU, GMCL1 /// GMCL1P1 / Fold change vs veh, GMCL1 /// GMCL1P1 / RFU, AEBP2 / Fold change vs veh, AEBP2 / RFU, SNHG1 /// SNORD22 /// SNORD25 /// SNORD26 /// SNORD27 /// SNORD28 /// SNORD29 /// SNORD31 / Fold change vs veh, SNHG1 /// SNORD22 /// SNORD25 /// SNORD26 /// SNORD27 /// SNORD28 /// SNORD29 /// SNORD31 / Fold change (Aza/veh), C12orf56 (ProbeSet 11735607_a_at) / Fold change (ACY-1035/veh), C12orf56 (ProbeSet 11735607_a_at) / Fold change (Aza/veh), FGFR1OP (ProbeSet 11751329_s_at) / Fold change (ACY-1035/veh), FGFR1OP (ProbeSet 11751329_s_at) / Fold change (Aza/veh), VPS36 (ProbeSet 11739960_a_at) / Fold change (ACY-1035/veh), VPS36 (ProbeSet 11739960_a_at) / RFU SYPL1 (11715823_x_at) / Fold change /veh SYPL1 (11715823_x_at) / RFU IGFBP7 (11715501_s_at) / Fold change /veh IGFBP7 (11715501_s_at) / RFU REEP3 (11722064_at) / Fold change /veh REEP3 (11722064_at) / RFU IGLL1 (11728026_x_at) / Fold change /veh IGLL1 (11728026_x_at): dose or concentration left out as unconfirmed. The format is cell-based, human. The conditions noted are these: ProbeSet 11743510_at; LIST D.

As for `Nc1ncn([C@@H]2O[C@H](CO)[C@@H](O)[C@H]2O)c(=O)n1` [azacitidine], the “Fold change vs veh, UFL1” value is 0.83.

The values are drawn from paper PMC5218480 (PLoS ONE, 2017).
